In paper PMC5053573, “Structure-Based Design of Tetrahydroisoquinoline-7-carboxamides as Selective Discoidin Domain Receptor 1 (DDR1) Inhibitors” (Journal of Medicinal Chemistry, 2016):

What was measured:
Assay in all cases: biochemical
Settings in all cases: read-out: %Ctrl @ 1000nM
MAPKAPK2 = MAPKAPK2 (Homo sapiens, UniProt P49137)
PDGFRB = PDGFRB (Homo sapiens, UniProt P09619)
[1] = target: RPS6KA4(Kin.Dom.2-C-terminal) (Homo sapiens, UniProt O75676)
DMPK2 = target: T1, DMPK2 (Homo sapiens, UniProt Q6DT37)
T1 construct: gene CDC42BPG
T1 sequence (Q6DT37 whole entry): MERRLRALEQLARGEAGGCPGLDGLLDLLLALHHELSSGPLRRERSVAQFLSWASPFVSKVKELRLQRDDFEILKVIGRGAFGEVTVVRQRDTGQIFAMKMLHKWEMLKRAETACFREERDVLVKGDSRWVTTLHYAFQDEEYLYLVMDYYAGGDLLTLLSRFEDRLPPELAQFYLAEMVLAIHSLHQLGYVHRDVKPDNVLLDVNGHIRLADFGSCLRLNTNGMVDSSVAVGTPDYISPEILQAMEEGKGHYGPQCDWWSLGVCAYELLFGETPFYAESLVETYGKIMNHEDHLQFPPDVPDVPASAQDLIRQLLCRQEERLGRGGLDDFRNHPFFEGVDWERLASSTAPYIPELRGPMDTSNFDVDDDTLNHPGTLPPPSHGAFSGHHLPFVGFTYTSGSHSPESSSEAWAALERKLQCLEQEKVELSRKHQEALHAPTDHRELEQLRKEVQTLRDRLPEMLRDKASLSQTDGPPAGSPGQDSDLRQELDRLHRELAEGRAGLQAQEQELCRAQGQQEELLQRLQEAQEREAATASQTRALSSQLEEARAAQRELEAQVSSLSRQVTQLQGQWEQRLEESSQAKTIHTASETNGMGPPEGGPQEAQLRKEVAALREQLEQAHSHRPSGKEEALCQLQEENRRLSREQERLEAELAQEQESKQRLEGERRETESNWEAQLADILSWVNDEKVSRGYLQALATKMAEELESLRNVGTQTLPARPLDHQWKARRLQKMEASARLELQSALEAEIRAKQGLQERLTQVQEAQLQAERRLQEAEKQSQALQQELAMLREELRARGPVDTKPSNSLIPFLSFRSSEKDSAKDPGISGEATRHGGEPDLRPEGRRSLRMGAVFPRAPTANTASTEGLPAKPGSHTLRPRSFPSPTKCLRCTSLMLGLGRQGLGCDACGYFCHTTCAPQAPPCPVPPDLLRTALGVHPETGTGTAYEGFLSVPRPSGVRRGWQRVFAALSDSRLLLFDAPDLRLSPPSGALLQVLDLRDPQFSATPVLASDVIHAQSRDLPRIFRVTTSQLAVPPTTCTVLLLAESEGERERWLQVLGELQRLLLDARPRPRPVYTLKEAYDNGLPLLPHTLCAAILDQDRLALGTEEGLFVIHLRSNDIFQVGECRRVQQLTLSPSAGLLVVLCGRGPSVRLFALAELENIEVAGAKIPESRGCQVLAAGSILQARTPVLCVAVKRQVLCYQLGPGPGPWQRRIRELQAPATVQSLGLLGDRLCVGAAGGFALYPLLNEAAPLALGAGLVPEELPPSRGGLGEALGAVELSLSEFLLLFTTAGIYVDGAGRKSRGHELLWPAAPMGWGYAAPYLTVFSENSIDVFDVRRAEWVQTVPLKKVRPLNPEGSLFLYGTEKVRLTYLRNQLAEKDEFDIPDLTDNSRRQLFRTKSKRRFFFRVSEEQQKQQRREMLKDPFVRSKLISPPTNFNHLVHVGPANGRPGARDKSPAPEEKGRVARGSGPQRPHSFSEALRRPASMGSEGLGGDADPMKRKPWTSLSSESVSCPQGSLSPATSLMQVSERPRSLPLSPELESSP

EPHB3 = EPHB3 (Homo sapiens, UniProt P54753)
CLK1 = CLK1 (Homo sapiens, UniProt P49759)
PIK3CA(M1043I) = PIK3CA(M1043I) (Homo sapiens, UniProt P42336, M1043I)
PIK3CA(M1043I), sequence (P42336 whole entry M1043I): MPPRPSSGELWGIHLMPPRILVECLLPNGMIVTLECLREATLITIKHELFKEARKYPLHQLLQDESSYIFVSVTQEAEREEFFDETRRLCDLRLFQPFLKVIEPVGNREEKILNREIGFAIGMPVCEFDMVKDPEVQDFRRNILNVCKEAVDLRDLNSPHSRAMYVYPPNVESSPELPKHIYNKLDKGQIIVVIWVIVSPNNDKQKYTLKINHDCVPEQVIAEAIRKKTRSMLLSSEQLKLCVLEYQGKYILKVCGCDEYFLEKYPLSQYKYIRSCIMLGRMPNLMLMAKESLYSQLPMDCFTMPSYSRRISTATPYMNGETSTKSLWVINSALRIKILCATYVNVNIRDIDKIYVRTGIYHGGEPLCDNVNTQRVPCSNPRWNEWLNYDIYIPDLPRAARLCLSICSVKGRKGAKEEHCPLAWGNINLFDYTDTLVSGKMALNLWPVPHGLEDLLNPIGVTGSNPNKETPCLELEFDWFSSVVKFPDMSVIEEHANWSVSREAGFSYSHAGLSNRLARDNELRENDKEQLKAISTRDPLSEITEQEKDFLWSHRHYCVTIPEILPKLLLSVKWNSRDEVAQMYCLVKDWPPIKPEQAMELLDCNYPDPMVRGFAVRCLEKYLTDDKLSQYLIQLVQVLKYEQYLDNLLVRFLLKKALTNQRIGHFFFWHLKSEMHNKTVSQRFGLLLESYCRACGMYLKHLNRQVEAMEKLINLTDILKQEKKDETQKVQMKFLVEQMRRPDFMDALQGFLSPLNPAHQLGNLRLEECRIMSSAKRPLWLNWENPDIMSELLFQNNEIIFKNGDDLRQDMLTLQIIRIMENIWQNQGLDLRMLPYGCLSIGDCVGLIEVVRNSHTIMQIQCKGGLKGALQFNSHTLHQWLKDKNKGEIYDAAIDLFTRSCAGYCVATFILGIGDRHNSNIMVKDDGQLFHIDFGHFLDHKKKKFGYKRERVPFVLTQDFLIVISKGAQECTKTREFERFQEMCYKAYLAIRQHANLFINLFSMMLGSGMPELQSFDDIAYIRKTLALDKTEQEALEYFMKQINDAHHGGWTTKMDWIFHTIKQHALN

FER = FER (Homo sapiens, UniProt P16591)
CSF1R = CSF1R (Homo sapiens, UniProt P07333)
CDK3 = CDK3 (Homo sapiens, UniProt Q00526)
DCAMKL1 = target: T2, DCAMKL1 (Homo sapiens, UniProt O15075)
T2 construct: gene DCLK1

BRSK1 = BRSK1 (Homo sapiens, UniProt Q8TDC3)
SGK = target: T3, SGK (Homo sapiens, UniProt O00141)
T3 construct: gene SGK1
T3 sequence (O00141 whole entry): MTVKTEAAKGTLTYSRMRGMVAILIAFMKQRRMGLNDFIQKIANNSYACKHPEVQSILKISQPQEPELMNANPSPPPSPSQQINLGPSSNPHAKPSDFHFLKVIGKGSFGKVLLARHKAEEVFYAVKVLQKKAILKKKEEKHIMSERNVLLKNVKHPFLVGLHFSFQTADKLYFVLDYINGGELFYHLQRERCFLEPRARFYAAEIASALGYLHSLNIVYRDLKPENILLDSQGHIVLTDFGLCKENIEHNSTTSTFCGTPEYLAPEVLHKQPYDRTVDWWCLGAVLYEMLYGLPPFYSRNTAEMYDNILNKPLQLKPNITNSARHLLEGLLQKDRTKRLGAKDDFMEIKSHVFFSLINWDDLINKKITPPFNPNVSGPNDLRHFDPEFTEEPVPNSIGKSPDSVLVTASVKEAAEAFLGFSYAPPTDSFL

CSNK1A1 = CSNK1A1 (Homo sapiens, UniProt P48729)
FLT3(ITD) = FLT3(ITD) (Homo sapiens, UniProt P36888, ITD)
SRMS = SRMS (Homo sapiens, UniProt Q9H3Y6)
CSK = CSK (Homo sapiens, UniProt P41240)
DAPK1 = DAPK1 (Homo sapiens, UniProt P53355)
SRPK2 = SRPK2 (Homo sapiens, UniProt P78362)
PRKCE = PRKCE (Homo sapiens, UniProt Q02156)
CASK = CASK (Homo sapiens, UniProt O14936)
p38-alpha = target: T4, p38-alpha (Homo sapiens, UniProt Q16539)
T4 construct: gene MAPK14

AMPK-alpha2 = target: T5, AMPK-alpha2 (Homo sapiens, UniProt P54646)
T5 construct: gene PRKAA2

HPK1 = target: T6, HPK1 (Homo sapiens, UniProt Q92918)
T6 construct: gene MAP4K1
T6 sequence (Q92918 whole entry): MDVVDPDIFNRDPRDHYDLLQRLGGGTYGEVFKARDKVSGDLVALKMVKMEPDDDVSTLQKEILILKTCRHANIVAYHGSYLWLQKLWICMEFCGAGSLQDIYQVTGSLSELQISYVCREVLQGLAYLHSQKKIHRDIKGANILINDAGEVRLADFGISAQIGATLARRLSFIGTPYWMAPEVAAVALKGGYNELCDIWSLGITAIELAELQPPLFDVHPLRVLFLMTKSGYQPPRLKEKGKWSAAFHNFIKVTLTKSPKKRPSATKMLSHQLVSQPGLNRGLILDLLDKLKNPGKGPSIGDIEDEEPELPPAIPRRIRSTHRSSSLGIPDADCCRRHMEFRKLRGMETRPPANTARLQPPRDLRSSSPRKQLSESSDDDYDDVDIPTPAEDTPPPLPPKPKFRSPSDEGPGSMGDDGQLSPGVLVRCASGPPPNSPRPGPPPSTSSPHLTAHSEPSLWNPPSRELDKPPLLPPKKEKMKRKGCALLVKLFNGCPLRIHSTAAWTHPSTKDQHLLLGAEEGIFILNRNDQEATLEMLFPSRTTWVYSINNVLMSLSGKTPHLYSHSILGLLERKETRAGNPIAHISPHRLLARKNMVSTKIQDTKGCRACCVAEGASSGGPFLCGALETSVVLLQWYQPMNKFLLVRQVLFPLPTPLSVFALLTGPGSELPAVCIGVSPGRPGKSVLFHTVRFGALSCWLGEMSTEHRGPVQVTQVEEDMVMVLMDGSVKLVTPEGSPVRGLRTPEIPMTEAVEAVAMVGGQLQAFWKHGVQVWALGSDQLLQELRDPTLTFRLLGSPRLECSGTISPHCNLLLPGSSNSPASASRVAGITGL

MAST1 = MAST1 (Homo sapiens, UniProt Q9Y2H9)
PYK2 = target: T7, PYK2 (Homo sapiens, UniProt Q14289)
T7 construct: gene PTK2B

PKN2 = PKN2 (Homo sapiens, UniProt Q16513)
HIPK2 = HIPK2 (Homo sapiens, UniProt Q9H2X6)
HIPK2, sequence (Q9H2X6 whole entry): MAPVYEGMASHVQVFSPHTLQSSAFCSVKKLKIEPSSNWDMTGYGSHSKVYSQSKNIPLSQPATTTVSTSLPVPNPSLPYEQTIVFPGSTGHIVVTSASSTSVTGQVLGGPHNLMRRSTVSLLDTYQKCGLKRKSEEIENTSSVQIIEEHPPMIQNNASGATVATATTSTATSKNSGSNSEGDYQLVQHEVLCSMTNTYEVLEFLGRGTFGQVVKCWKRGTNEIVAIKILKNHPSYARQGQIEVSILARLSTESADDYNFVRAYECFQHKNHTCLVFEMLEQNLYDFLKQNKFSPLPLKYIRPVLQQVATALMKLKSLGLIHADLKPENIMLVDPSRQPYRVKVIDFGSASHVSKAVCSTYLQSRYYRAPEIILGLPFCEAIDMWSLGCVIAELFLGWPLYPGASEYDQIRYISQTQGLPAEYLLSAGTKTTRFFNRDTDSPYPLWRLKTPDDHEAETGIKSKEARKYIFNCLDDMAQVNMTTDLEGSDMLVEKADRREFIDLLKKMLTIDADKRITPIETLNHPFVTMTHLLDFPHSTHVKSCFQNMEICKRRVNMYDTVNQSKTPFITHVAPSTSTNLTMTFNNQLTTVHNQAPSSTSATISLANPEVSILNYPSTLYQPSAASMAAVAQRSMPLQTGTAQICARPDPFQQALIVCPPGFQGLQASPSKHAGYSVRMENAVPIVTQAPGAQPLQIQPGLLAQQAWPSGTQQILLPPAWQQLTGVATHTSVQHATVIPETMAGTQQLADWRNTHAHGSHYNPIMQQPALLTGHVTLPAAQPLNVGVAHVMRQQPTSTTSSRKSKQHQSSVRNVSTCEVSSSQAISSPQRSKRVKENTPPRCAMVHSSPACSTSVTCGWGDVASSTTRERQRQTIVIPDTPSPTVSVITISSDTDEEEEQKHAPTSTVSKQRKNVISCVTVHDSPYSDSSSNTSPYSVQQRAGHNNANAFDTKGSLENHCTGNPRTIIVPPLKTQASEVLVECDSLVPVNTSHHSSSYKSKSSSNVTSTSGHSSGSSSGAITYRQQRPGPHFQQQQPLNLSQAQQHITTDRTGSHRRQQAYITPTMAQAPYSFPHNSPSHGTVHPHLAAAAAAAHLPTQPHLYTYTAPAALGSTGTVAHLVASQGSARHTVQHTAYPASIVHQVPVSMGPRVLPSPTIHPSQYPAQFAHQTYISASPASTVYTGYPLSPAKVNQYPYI

BRAF(V600E) = BRAF(V600E) (Homo sapiens, UniProt P15056, V600E)
ACVRL1 = ACVRL1 (Homo sapiens, UniProt P37023)
GRK7 = GRK7 (Homo sapiens, UniProt Q8WTQ7)
[2] = target: T8, RSK1(Kin.Dom.1-N-terminal) (Homo sapiens, UniProt Q15418)
T8 construct: gene RPS6KA1

DYRK1A = DYRK1A (Homo sapiens, UniProt Q13627)
PIK3C2G = PIK3C2G (Homo sapiens, UniProt O75747)
IKK-alpha = target: T9, IKK-alpha (Homo sapiens, UniProt O15111)
T9 construct: gene CHUK

- remaining activity at 1 µM (MAPKAPK2): 100%
- remaining activity at 1 µM (PDGFRB): 82%
- remaining activity at 1 µM [1]: 100%
- remaining activity at 1 µM (DMPK2): 100%
- remaining activity at 1 µM (EPHB3): 82%
- remaining activity at 1 µM (CLK1): 92%
- remaining activity at 1 µM (PIK3CA(M1043I)): 93%
- remaining activity at 1 µM (FER): 92%
- remaining activity at 1 µM (CSF1R): 96%
- remaining activity at 1 µM (CDK3): 97%
- remaining activity at 1 µM (DCAMKL1): 100%
- remaining activity at 1 µM (BRSK1): 98%
- remaining activity at 1 µM (SGK): 100%
- remaining activity at 1 µM (CSNK1A1): 57%
- remaining activity at 1 µM (FLT3(ITD)): 71%
- remaining activity at 1 µM (SRMS): 100%
- remaining activity at 1 µM (CSK): 92%
- remaining activity at 1 µM (DAPK1): 100%
- remaining activity at 1 µM (SRPK2): 100%
- remaining activity at 1 µM (PRKCE): 100%
- remaining activity at 1 µM (CASK): 100%
- remaining activity at 1 µM (p38-alpha): 62%
- remaining activity at 1 µM (AMPK-alpha2): 100%
- remaining activity at 1 µM (HPK1): 100%
- remaining activity at 1 µM (MAST1): 100%
- remaining activity at 1 µM (PYK2): 93%
- remaining activity at 1 µM (PKN2): 95%
- remaining activity at 1 µM (HIPK2): 100%
- remaining activity at 1 µM (BRAF(V600E)): 100%
- remaining activity at 1 µM (ACVRL1): 76%
- remaining activity at 1 µM (GRK7): 94%
- remaining activity at 1 µM [2]: 96%
- remaining activity at 1 µM (DYRK1A): 100%
- remaining activity at 1 µM (PIK3C2G): 86%
- remaining activity at 1 µM (IKK-alpha): 100%
Structure (SMILES): Cc1cn(-c2cc(NC(=O)c3ccc4c(c3)CN(c3cncnc3)C[C@@H]4C)cc(C(F)(F)F)c2)cn1 [Compound 6j]
